Results: US20260125374A1, “PI3K-ALPHA INHIBITORS AND METHODS OF MAKING AND USING THE SAME” (Relay Therapeutics, Inc., priority 2021, published 2026)
Marks after values point to notes of the source that are not given here. Blank lines part the entries; values can stand above or below the compound they belong to.

How the values were obtained:
[1] = Salt screening (XRPD, chiral purity of hits); type: physicochemical
Description: Based on the pKa of I-1 free form, 23 counter ions were selected as salt/cocrystal forming agents. Methanol, acetone and isopropyl acetate were used as screening solvents. 1.0 equivalent of selected counter ions/coformers was applied for salt screening. Slurry equilibration, slow evaporation and anti-solvent addition were used as crystallization methods. In total, about 70 screening experiments were conducted.
About 50 mg of I-1 Form A were added to a suitable amount of solvent and 1.0 equivalent of counter ions were added under stirring at 50° C. for 2 hours and then at 25° C. for at least 12 hours. MeOH, acetone and IPAc were used as screening solvents.
Obtained suspensions were taken out and centrifuged. Solids obtained were analyzed by XRPD and salt screening results were summarized in Table 5.1, Table 5.2, and Table 5.3.

[2] = cited from earlier work
[3] = Light and glassware influence on racemization of II-1; type: physicochemical
Description: The effect of glassware surface pH and light on II-1 racemization was evaluated.

[4] = Polymorph screening (equilibration, anti-solvent, slow evaporation, slow cooling, temperature cycling, heating-cooling; XRPD and SFC); type: physicochemical; conditions: for ee %(SFC): 6 days
Description: This polymorph screening program of compound I-1 free form was performed with two batches of the pure enantiomer. Both batches are crystalline and is assigned as Form A. The polymorphic behaviors of the enantiomer were investigated by equilibration at 25° C. and 50° C., equilibration under a temperature cycle, crystallization from hot saturated solutions by slow cooling, slow evaporation, precipitation by addition of anti-solvent, and DSC heating-cooling cycle experiments. Relative stability of identified polymorphs was investigated by competitive slurry experiments.
(§1) About 50 mg of I-1 Form A was weighed into a 2 mL glass vial and equilibrated in suitable amount of solvents (pretreated by molecular sieves) at 25° C. for 2 weeks with a stirring plate and with protection from light. Obtained suspensions were filtered with 0.45 μm nylon membrane and the solid parts (wet cake) were investigated by XRPD. When differences were observed, additional investigations were performed (e.g. DSC, TGA, ^1H-NMR, SFC).
as §1, with “into” for “into a”, “vials” for “vial”, “50°” for “25°”, “10 days” for “2 weeks”, “investigation was” for “investigations were”
I-1 Form A was dissolved in a good solvent. […] The solvents used were pretreated by molecular sieve. Precipitates were collected by filtration. The solid part (wet cake) was investigated by XRPD. […] When differences were observed, additional investigations were performed (e.g. DSC, TGA, ^1H-NMR, SFC).
Based on approximate solubility results, I-1 Form A was dissolved in suitable amount of solvents (pretreated by molecular sieves). Obtained solutions were filtered by 0.45 μm nylon filter. […] Solid residues were examined for their polymorphic form. When differences were observed, additional investigations were performed (e.g. DSC, TGA, ^1H-NMR, SFC).
Approximate 50 mg of batch I-1 Form A were dissolved in the minimal amount of selected solvents (without pretreatment by molecular sieves) at 50° C. Obtained solutions were filtered by 0.45 μm nylon filter. […] Precipitates were collected by filtration. The solid parts (wet cake) were investigated by XRPD. When differences were observed, additional investigations were performed (e.g. DSC, TGA, ^1H-NMR, SFC). When no precipitation was obtained or only a few solids were obtained, the solutions were placed at 5° C. for crystallization.
About 50 mg of I-1 Form A was equilibrated in different solvents (pretreated by molecular sieves) under a temperature cycle between 5° C. to 50° C. at a heating/cooling rate of 0.2° C./min for 10 cycles and with protection from light. After 10 cycles, precipitates were collected at 5° C. by filtration. The solid parts (wet cake) were investigated by XRPD. When differences were observed, additional investigations were performed (e.g. DSC, TGA, 1H-NMR, SFC).
Polymorphic behavior of I-1 Form A was investigated by two different heating-cooling cycles of DSC. Cycle 1:30° C. to 280° C. at 10° C./min; 280° C. to −20° C. at 20° C./min; reheat to 300° C. at 10° C./min. Cycle 2:30° C. to 280° C. at 10° C./min; 280° C. to-20° C. at 2° C./min; reheat to 300° C. at 10° C./min.

[5] = crystalline hits of salt screening, listed as III-2 Form A
[6] = crystalline hits of salt screening, listed as III-2 Form B
[7] = crystalline hits of salt screening, listed as III-6 Form A
[8] = crystalline hits of salt screening, listed as I-2 Form A
[9] = equilibration of II-1 in 1,4-dioxane, 50° C.
[10] = crystalline hit dried at 50° C. for 21 h
[11] = crystalline hits of salt screening, listed as I-5 Form A
[12] = crystalline hits of salt screening, listed as I-5 Form B

Structure (SMILES): N#Cc1c(-c2cc(NC(=O)c3cc(F)cc(C(F)(F)F)c3)c3c(c2)C(=O)NC3c2cc(F)ccc2Cl)ccc2ncnn12 (stereo not shown) [III-2]
- Salt screening result (slurry crystallization) ([1]; 1.0 equiv. HCl, ACN (second block of table)): + (III-2 Form B) (Salt hits)
- Salt screening result (slurry crystallization) ([1]; 1.0 equiv. HCl, Acetone): + (III-2 Form A) (Salt hits)
- Salt screening result (slurry crystallization) ([1]; 1.0 equiv. HCl, Acetone (second block of table)): + (III-2 Form A) (Salt hits)
- Chiral purity (by HPLC) [1, 5]: 30.8%
- Crystallinity (By XRPD) [1, 5]: Medium
- Chiral purity (by HPLC) [1, 6]: 20.3%
- Crystallinity (By XRPD) [1, 6]: Low
- Chiral purity of salt screening solid ([1]; slurry, 1.0 equiv. HCl, ACN (second block of table)): Chiral purity: 20.2%
- Chiral purity of salt screening solid ([1]; slurry, 1.0 equiv. HCl, Acetone): Chiral purity: 30.8%
- Chiral purity of salt screening solid ([1]; slurry, 1.0 equiv. HCl, Acetone (second block of table)): Chiral purity: 45.4%

Structure (SMILES): O=S(=O)(O)c1ccc2ccccc2c1 [Naphthalene-2-sulfonic acid]
- pKa(s) [2]: 0.17

Structure (SMILES): N#Cc1c(-c2cc(NC(=O)c3cc(F)cc(C(F)(F)F)c3)c3c(c2)C(=O)NC3c2cc(F)ccc2Cl)ccc2ncnn12 (stereo not shown) [III-6]
- Salt screening result (slurry crystallization) ([1]; 1.0 equiv. naphthalene-2-sulfonic acid, Acetone): + (Salt hits)
- Chiral purity (by HPLC) [1, 7]: 43.2%
- Crystallinity (By XRPD) [1, 7]: low
- Chiral purity of salt screening solid ([1]; slurry, 1.0 equiv. naphthalene-2-sulfonic acid, Acetone): Chiral purity: 43.2%

Structure (SMILES): N#Cc1c(-c2cc(NC(=O)c3cc(F)cc(C(F)(F)F)c3)c3c(c2)C(=O)N[C@H]3c2cc(F)ccc2Cl)ccc2ncnn12 [Compound I-2]
- Salt screening result (slurry crystallization) ([1]; 1.0 equiv. HCl, Isopropyl acetate): + (Salt hits)
- Chiral purity (by HPLC) [1, 8]: 89.7%
- Crystallinity (By XRPD) [1, 8]: Low
- Chiral purity of salt screening solid ([1]; slurry, 1.0 equiv. HCl, Isopropyl acetate): Chiral purity: 89.7%

- racemization in solution ([3]; basic glassware, promoted by light): Noticeable racemization
- racemization in solution ([3]; neutral and acidic glassware, absence and presence of light, up to 13 days): no significant racemization
- XRPD (6 days) [4, 9]: II-1 Form B
- ee %(SFC) [4, 9]: ee %(SFC): −99.48%*
- ee %(SFC) ([4]; equilibration of II-1 in ACN/water(80:20, v/v), 50° C.): ee %(SFC): −99.24%*
- ee %(SFC) ([4]; equilibration of II-1 in EtOH/water(50:50, v/v), 50° C.): ee %(SFC): −99.78%*
- ee %(SFC) ([4]; equilibration of II-1 in Methanol, 50° C.): ee %(SFC): −99.66%*
- XRPD (6 days) ([4]; equilibration of II-1 in THF/water(85:15, v/v) a.w. 0.9, 25° C.): II-1 Form C (include the
- ee %(SFC) ([4]; equilibration of II-1 in THF/water(85:15, v/v), 25° C.): ee %(SFC): −99.34%*
Structure (SMILES): N#Cc1c(-c2cc(NC(=O)c3cc(F)cc(C(F)(F)F)c3)c3c(c2)C(=O)N[C@@H]3c2cc(F)ccc2Cl)ccc2ncnn12 [II-1, (S)-N-(3-(2-chloro-5-fluorophenyl)-6-(5-cyano-[1,2,4]triazolo[1,5-a]pyridin-6-yl)-1-oxoisoindolin-4-yl)-3-fluoro-5-(trifluoromethyl)benzamide]

Structure (SMILES): O=C(O)CC(O)(CC(=O)O)C(=O)O [Citric acid]
- pKa(s) [2]: 3.12, 4.76, 6.39

Structure (SMILES): N#Cc1c(-c2cc(NC(=O)c3cc(F)cc(C(F)(F)F)c3)c3c(c2)C(=O)N[C@H]3c2cc(F)ccc2Cl)ccc2ncnn12 [Compound I-5]
- Salt screening result (anti-solvent) ([1]; 1.0 equiv. naphthalene-1,5-disulfonic acid, Acetone/MTBE): + (I-5 Form B) (Salt hits)
- Chiral purity of salt screening solid ([1]; anti-solvent, 1.0 equiv. naphthalene-1,5-disulfonic acid, Acetone/MTBE): Chiral purity: 88.3%
- Chiral purity (by HPLC) [1, 10]: C. for 21 h: 100%
- Crystallinity (By XRPD) [1, 10]: low crystallinity
- Chiral purity (by HPLC) [1, 11]: 100% dried at 50°
- Crystallinity (By XRPD) [1, 11]: Medium crystallinity
- Chiral purity (by HPLC) [1, 12]: 88.3%
- Crystallinity (By XRPD) [1, 12]: Medium
